Laboratory results as given in patent US20100093751A1, “Indolizineacetic Acids and Their Therapeutic Use as Ligands of the CRTH2 Receptor” (priority 2006, published 2010).

Target: T1, CRTH2 receptor (Homo sapiens, UniProt Q9Y5Y4)
T1 construct: expressed in transfected cells; host or cells: HEK (human embryonic kidney) cells, membranes
T1 sequence (Q9Y5Y4 1-395): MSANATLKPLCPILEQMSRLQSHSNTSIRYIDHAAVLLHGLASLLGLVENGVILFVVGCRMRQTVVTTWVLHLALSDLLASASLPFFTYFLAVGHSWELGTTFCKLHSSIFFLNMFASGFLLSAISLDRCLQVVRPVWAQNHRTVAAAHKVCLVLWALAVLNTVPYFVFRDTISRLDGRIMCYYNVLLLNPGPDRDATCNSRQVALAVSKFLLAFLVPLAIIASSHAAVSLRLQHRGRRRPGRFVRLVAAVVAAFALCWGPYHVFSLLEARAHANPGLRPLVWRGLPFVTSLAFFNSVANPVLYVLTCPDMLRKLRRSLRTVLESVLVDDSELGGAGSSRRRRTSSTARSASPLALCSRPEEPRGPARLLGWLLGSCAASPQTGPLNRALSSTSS
Experiment: CRTH2 radioligand binding assay ([3H]-PGD2 displacement, SPA)
Conditions: HEK cell membranes expressing the CRTH2 receptor, 1 nM [3H]-PGD2; Ki from IC50 by Cheng-Prusoff equation
Description: Compounds of the invention were tested using the following biological test method to determine their ability to displace PGD2 from the CRTH2 receptor.
Radioligand Binding Assay
The receptor binding assay is performed in a final volume of 200 μL binding buffer [10 mM BES (pH 7.4), 1 mM EDTA, 10 mM manganese chloride, 0.01% BSA] and 1 nM [^3H]-PGD2 (Amersham Biosciences UK Ltd). Ligands are added in assay buffer containing a constant amount of DMSO (1% by volume). Total binding is determined using 1% by volume of DMSO in assay buffer and non-specific binding is determined using 10 μM of unlabeled PGD2 (Sigma). Human embryonic kidney (HEK) cell membranes (3.5 μg) expressing the CRTH2 receptor are incubated with 1.5 mg wheatgerm agglutinin SPA beads and 1 nM [^3H]-PGD2 (Amersham Biosciences UK Ltd) and the mixture incubated for 3 hours at room temperature. Bound [^3H]-PGD2 is detected using a Microbeta TRILUX liquid scintillation counter (Perkin Elmer). Compound IC50 value is determined using a 6-point dose response curve in duplicate with a semi-log compound dilution series. IC50 calculations are performed using Excel and XLfit (Microsoft), and this value is used to determine a Ki value for the test compound using the Cheng-Prusoff equation.

SMILES	Ki [nM]
Cc1c(CC(=O)O)c2ccc(F)cn2c1Sc1ccc(S(=O)(=O)N2CCOCC2)cc1F [Example 1, {6-fluoro-3-[2-fluoro-4-(morpholine-4-sulfonyl)phenylsulfanyl]-2-methylindolizin-1-yl}acetic acid]	0.5
Cc1c(CC(=O)O)c2ccc(F)cn2c1Sc1ccc(-c2cnn(C)c2)cc1 [Example 4, {6-fluoro-2-methyl-3-[4-(1-methyl-1H-pyrazol-4-yl)phenylsulfanyl]indolizin-1-yl}acetic acid]	19
